Results taken from PMC7395068, “The evolution of strategies to minimise the risk of human drug-induced liver injury (DILI) in drug discovery and development” (Archives of Toxicology, 2020).
Where two headings read alike, the source gives them in different places.

Assays:
[1] = Plasma free fraction (fu) and unbound Cmax (Cmax,u); type: in vitro ADME, human; conditions: unbound plasma Cmax
PHH liver spheroid = tested on: PHH liver spheroid; parameters: method as in Foster et al. 2019; conditions: liver-chip of comparable sensitivity, ref Foster et al. 2019; cited from earlier work
HepG2 = tested on: HepG2; parameters: method as in Albrecht 2019; conditions: In vitro Assay; ref Albrecht 2019; cited from earlier work
[2] = cited from earlier work
HepG2 cells [3] = conditions: cited from earlier work
HepG2 cells [4] = conditions: cited from earlier work; remark: listed apart in the source
HepG2 cells [5] = conditions: cited from earlier work; remark: listed apart in the source
PHH [6] = conditions: cited from earlier work
hLiMTs [7] = conditions: cited from earlier work
PHH spheroids = conditions: In vitro Assay; ref Vorrink 2018; cited from earlier work
[8] = tested on: HepG2 C3A spheroid, BSEP, Glu/Gal in HepG2 cells, bioactivation; conditions: cited from earlier work
[9] = cited from earlier work; remark: listed apart in the source
[10] = plasma free fraction; cited from earlier work
[11] = cited from earlier work; remark: listed apart in the source
PHH [12] = conditions: In vitro Assay; ref Albrecht 2019; cited from earlier work
HepaRG cells = conditions: HepaRG cells, BMCs in relation to 10 × human Cmax.tot; ref National Toxicology Program; cited from earlier work
[13] = tested on: THLE-Null and THLE-3A4 cells; conditions: In vitro Assay; ref Gustafsson 2014; cited from earlier work
[14] = tested on: isolated mouse liver mitochondria; conditions: In vitro Assay; ref Porceddu 2012; cited from earlier work
rBsep [15] = conditions: In vitro Assay; ref Dawson 2012; cited from earlier work
hLiMTs [16] = test: Combined HCI (HCS) and cellular ATP 3D assay in hLiMTs; conditions: for AC50 / minimal effective concentration: Homo sapiens
HepaRG spheroids = test: Combined HCI (HCS) and cellular ATP 3D assay in HepaRG spheroids; conditions: for AC50 / minimal effective concentration: Homo sapiens
rBsep [17] = tested on: rBsep; parameters: method as in Dawson 2012; conditions: ref Dawson 2012, cited from earlier work
[18] = In vitro Assay, ref Proctor 2017
[19] = Microtissue model structural based (HCI), combined HCS and ATP, MEC < 25 × Cmax.tot cut-off

CC(=O)Nc1ccc(O)cc1 [acetaminophen]
Human plasma Cmax,u [1]: 139.840 µM | detection in 3D microtissues (PHH liver spheroid): detected | Cytotoxicity HepG2 48 hrs (HepG2): +VE | DILI severity category (Chen et al. [2016]) ([2]; LTKB DILIrank category, ref Chen et al. 2016): Most | DILI severity category ([2]; human DILI severity, ref Chen et al.): Most | DILI +VE (5-8), DILI -VE (-4) ([2]; ref Chen 2016): +VE | DILI severity category ([2]; ref Chen 2016): vMost-DILI-Concern | Structural based (HCI) (HepG2 cells [3]; In vitro Assay, ref O'Brien 2006): +VE | DILI in vitro assay prediction, O'Brien (2006) (HepG2 cells [3]; Structural based (HCI), HepG2, ref O'Brien et al. 2006): +VE (lowest HCI endpoint IC50 (or in the absence of dose–response < 100 µM) < 30 × total human plasma exposure levels (Cmax.tot)) | Structural based (HCI) (HepG2 cells [4]; In vitro Assay, ref Persson 2013): -VE | DILI in vitro assay prediction, Persson (2013) (HepG2 cells [4]; Structural based (HCI), HepG2, ref Persson et al. 2013): -VE | Structural based (HCI) (HepG2 cells [5]; In vitro Assay, ref Tolosa 2012): +VE | DILI in vitro assay prediction, Tolosa (2012) (HepG2 cells [5]; Structural based (HCI), HepG2, ref Tolosa et al. 2012): +VE | PHH/100uM, Proctor (2017) (PHH [6]; 2D PHH, ATP, IC50 threshold 100 µM, ref Proctor et al. 2017): -VE | PHH ATP <100uM (PHH [6]; [18]): +VE (IC50 threshold of 100 µM) | hLiMTs ATP <100uM (hLiMTs [7]; [18]): -VE | hLiMTs/100uM, Proctor (2017) (hLiMTs [7]; hLiMTs, ATP, IC50 threshold 100 µM, ref Proctor et al. 2017): -VE | hLiMTs ATP <20 x Cmax (PHH spheroids): +VE (IC20 < 20 × Cmax.tot cut-off) | Bayesian Machine Learning DILI prediction, Williams (2019) ([8]; Bayesian modeling, ref Williams et al. 2019): +VE | Bayesian Machine Learning ([8]; In vitro Assay, ref Williams 2019): +VE | Cmax ([9]; read-out: Cmax.tot, value used by Albrecht, ref Albrecht et al. 2019): 109 µM | Cmax ([9]; read-out: Human plasma Cmax, total plasma Cmax.tot, median of 9 literature references): 152 µM | fu [10]: 0.920 | Assigned DILI category ([11]; Chen et al. 2016 or literature alignment, ref Chen et al. 2016): 3 | In vivo DILI ([11]; […]): +VE | In vivo DILI ([11]; ref Albrecht 2019): +VE | In vivo DILI ([11]; ref Dawson 2012): +VE | In vivo DILI ([11]; ref Garside 2014): +VE | In vivo DILI ([11]; ref Gustafsson 2014): +VE | In vivo DILI ([11]; ref O'Brien 2006): +VE | In vivo DILI ([11]; ref Persson 2013): +VE | In vivo DILI ([11]; ref Porceddu 2012): +VE | In vivo DILI ([11]; ref Proctor 2017): +VE | In vivo DILI ([11]; ref Schadt 2015): +VE | In vivo DILI ([11]; ref Tolosa 2012): +VE | In vivo DILI ([11]; ref Vorrink 2018): +VE | In vivo DILI ([11]; ref Williams 2019): +VE | In vivo DILI ([11]; ref Xu 2008): +VE | Cytotoxicity PHH 48 hrs (PHH [12]): +VE | DILI identification by high-throughput transcriptomics (HepaRG cells): identified | THLE-Null [13]: -VE | in vitro data EC2<=1x Cmax [14]: +VE | in vitro data EC20<=2uM [14]: -VE | Inhibition of rBsep cutoff<1& cmax u>.2 (rBsep [15]): -VE | Inhibition of rBsep cutoff<3 (rBsep [15]): -VE | AC50 (hLiMTs [16]; read-out: ATP endpoint AC50): 1240 µM | minimal effective concentration (hLiMTs [16]; read-out: ATP endpoint MEC): 292 µM | AC50 (hLiMTs [16]; read-out: HCS endpoint AC50): 4340 µM | minimal effective concentration (hLiMTs [16]; read-out: HCS endpoint MEC): 456 µM | DILI prediction hLiMTs (HCS-MEC) (hLiMTs [16]; [19]): +VE (MEC < 25 × Cmax.tot cut-off) | hLiMTs <25x Avg Cmax ATP (hLiMTs [16]; hLiMTs, ATP endpoint, cut-off <25x Avg Cmax): +ve | hLiMTs <100x Avg Cmaxu ATP (hLiMTs [16]; hLiMTs, ATP endpoint, cut-off <100x Avg Cmaxu): +ve (<100x Avg Cmaxu) | hLiMTs <25x Avg Cmax HCS (hLiMTs [16]; hLiMTs, HCS endpoints, cut-off <25x Avg Cmax): +ve | hLiMTs <100x Avg Cmaxu HCS (hLiMTs [16]; hLiMTs, HCS endpoints, cut-off <100x Avg Cmaxu): +ve (<100x Avg Cmaxu) | hLiMTs <25x Avg Cmax All (hLiMTs [16]; hLiMTs, all endpoints (ATP and HCS), cut-off <25x Avg Cmax): +ve | hLiMTs Cmax max All (hLiMTs [16]; hLiMTs, all endpoints, Cmax max used): +ve | hLiMTs Cmax min All (hLiMTs [16]; hLiMTs, all endpoints, Cmax min used): +ve | hLiMTs <10 uM All (hLiMTs [16]; hLiMTs, all endpoints, cut-off <10 uM): -ve | hLiMTs <100x Avg Cmaxu All (hLiMTs [16]; hLiMTs, all endpoints, cut-off <100x Avg Cmaxu): +ve (<100x Avg Cmaxu) | HepaRG <25x Avg Cmax ATP (HepaRG spheroids; HepaRG, ATP endpoint, cut-off <25x Avg Cmax): +ve | HepaRG <100x Avg Cmaxu ATP (HepaRG spheroids; HepaRG, ATP endpoint, cut-off <100x Avg Cmaxu): +ve (<100x Avg Cmaxu) | HepaRG <25x Avg Cmax HCS (HepaRG spheroids; HepaRG, HCS endpoints, cut-off <25x Avg Cmax): +ve | HepaRG <100x Avg Cmaxu HCS (HepaRG spheroids; HepaRG, HCS endpoints, cut-off <100x Avg Cmaxu): +ve (<100x Avg Cmaxu) | HepaRG <25x Avg Cmax All (HepaRG spheroids; HepaRG, all endpoints (ATP and HCS), cut-off <25x Avg Cmax): +ve | HepaRG Cmax max All (HepaRG spheroids; HepaRG, all endpoints, Cmax max used): +ve | HepaRG Cmax min All (HepaRG spheroids; HepaRG, all endpoints, Cmax min used): +ve | HepaRG <10 uM All (HepaRG spheroids; HepaRG, all endpoints, cut-off <10 uM): -ve | HepaRG <100x Avg Cmaxu All (HepaRG spheroids; HepaRG, all endpoints, cut-off <100x Avg Cmaxu): +ve (<100x Avg Cmaxu) | AC50 (HepaRG spheroids; HepaRG, read-out: ATP endpoint AC50): 760 µM | minimal effective concentration (HepaRG spheroids; HepaRG, read-out: ATP endpoint MEC): 187 µM | AC50 (HepaRG spheroids; HepaRG, read-out: HCS endpoint AC50): 3100 µM | minimal effective concentration (HepaRG spheroids; HepaRG, read-out: HCS endpoint MEC): 656 µM | DILI prediction HepaRG spheroids (HCS-MEC) (HepaRG spheroids; [19]): +VE (MEC < 25 × Cmax.tot cut-off)

CO[C@H]1/C=C/O[C@@]2(C)Oc3c(C)c(O)c4c(O)c(cc(O)c4c3C2=O)NC(=O)/C(C)=C\C=C\[C@H](C)[C@H](O)[C@@H](C)[C@@H](O)[C@@H](C)[C@H](OC(C)=O)[C@@H]1C [rifamycin SV]
Inhibition of rBsep cutoff<1& cmax u>.2 (rBsep [17]; cutoff<1& cmax u>.2): +VE | Inhibition of rBsep cutoff<3 (rBsep [17]; cutoff<3): +VE | In vivo DILI ([11]; assignment in Dawson 2012, ref Dawson 2012): +VE
